Reference: ChEMBL document CHEMBL1909046, “DrugMatrix in vitro pharmacology data”

Experiments:
[1] = DRUGMATRIX: ATPase, Na+/K+ enzyme inhibition (substrate: ATP); assay type: tissue-based, Sus scrofa, Heart; conditions: Not Active = under 50% inhibition at 10 µM
[2] = target: T1, Substance-K receptor (Homo sapiens, UniProt P21452); assay type: cell membranes, CHO, Membrane; note: in other assays of this panel Not Active means under 50% inhibition at 10 µM
T1 sequence (P21452 whole entry): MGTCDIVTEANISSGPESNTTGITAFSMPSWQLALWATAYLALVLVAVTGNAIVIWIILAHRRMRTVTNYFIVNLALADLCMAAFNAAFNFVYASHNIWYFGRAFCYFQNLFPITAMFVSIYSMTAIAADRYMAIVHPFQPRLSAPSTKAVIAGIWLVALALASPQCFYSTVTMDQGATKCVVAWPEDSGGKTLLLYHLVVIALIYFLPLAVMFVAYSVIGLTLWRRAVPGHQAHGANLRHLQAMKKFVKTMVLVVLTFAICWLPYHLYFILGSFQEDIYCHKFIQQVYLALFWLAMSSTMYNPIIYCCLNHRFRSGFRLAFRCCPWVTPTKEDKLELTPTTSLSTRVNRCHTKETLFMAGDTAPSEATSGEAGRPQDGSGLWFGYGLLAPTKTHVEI

[3] = target: T2, Thromboxane-A synthase (Homo sapiens, UniProt P24557); experiment: biochemical; assay type: tissue-based, Platelet;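 note: enzyme inhibition assay with PGH2 supplied as substrate; in other assays of this panel Not Active means under 50% inhibition at 10 µM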
T2 sequence (P24557 whole entry): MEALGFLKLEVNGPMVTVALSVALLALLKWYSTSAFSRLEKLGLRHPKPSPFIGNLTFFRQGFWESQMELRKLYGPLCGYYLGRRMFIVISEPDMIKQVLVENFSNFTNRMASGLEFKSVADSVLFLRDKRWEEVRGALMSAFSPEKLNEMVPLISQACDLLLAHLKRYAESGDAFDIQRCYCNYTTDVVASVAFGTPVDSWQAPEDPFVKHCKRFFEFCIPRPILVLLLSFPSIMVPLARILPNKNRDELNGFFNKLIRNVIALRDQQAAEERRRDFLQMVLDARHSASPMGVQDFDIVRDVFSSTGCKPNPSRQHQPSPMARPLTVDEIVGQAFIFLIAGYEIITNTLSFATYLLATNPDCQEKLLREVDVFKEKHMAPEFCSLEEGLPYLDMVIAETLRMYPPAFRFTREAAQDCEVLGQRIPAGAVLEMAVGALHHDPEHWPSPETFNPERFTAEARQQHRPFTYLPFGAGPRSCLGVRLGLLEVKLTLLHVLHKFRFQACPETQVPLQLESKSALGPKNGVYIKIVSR

[4] = target: T3, C-X-C chemokine receptor type 1 (Homo sapiens, UniProt P25024); note: in other assays of this panel Not Active means under 50% inhibition at 10 µM
T3 sequence (P25024 whole entry): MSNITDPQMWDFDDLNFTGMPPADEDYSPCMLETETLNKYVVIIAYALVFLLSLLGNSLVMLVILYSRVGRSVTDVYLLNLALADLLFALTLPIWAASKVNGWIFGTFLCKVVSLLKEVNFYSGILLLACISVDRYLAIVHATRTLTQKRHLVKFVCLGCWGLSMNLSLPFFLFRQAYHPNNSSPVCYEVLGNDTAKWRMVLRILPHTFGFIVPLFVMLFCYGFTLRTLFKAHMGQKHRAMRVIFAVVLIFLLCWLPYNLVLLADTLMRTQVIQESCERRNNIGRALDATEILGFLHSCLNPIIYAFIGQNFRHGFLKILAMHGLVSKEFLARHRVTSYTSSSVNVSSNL

[5] = target: Melanocortin receptor 3 (Homo sapiens, UniProt P41968); assay type: cell membranes, Membrane; conditions: hek293; note: in other assays of this panel Not Active means under 50% inhibition at 10 µM
[6] = DRUGMATRIX: Nicotinic Acetylcholine radioligand binding (ligand: [125I] Epibatidine); assay type: cell membranes, Membrane; conditions: imr-32; Not Active = under 50% inhibition at 10 µM
[7] = target: cGMP-specific 3',5'-cyclic phosphodiesterase (Homo sapiens, UniProt O76074); experiment: DRUGMATRIX: Phosphodiesterase PDE5 enzyme inhibition (substrate: [3H]cGMP + cGMP); assay type: tissue-based, Platelet; conditions: Not Active = under 50% inhibition at 10 µM
[8] = target: Protein phosphatase 3 catalytic subunit alpha (Homo sapiens, UniProt Q08209); parameters: species or system Escherichia coli
[9] = target: T4, Cytochrome P450 1A2 (Homo sapiens, UniProt P05177); conditions: bti-tn-5b1-4; note: in other assays of this panel Not Active means under 50% inhibition at 10 µM
T4 sequence (P05177 whole entry): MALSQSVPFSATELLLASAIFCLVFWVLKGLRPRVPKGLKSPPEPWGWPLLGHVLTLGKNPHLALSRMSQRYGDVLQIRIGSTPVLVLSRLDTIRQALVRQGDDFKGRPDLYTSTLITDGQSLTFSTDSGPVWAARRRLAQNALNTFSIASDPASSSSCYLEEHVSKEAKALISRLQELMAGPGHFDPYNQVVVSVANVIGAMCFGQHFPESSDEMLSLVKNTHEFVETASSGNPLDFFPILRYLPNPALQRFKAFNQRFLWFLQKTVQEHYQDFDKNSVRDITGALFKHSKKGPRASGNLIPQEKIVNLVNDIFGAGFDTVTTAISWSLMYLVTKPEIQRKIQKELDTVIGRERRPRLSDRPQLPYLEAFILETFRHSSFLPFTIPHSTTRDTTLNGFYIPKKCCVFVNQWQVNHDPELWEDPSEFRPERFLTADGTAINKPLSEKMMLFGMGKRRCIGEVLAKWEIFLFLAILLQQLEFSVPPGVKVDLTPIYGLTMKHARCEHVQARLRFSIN

[10] = target: T5, Cytochrome P450 2A6 (Homo sapiens, UniProt P11509); conditions: bti-tn-5b1-4; note: in other assays of this panel Not Active means under 50% inhibition at 10 µM
T5 sequence (P11509 whole entry): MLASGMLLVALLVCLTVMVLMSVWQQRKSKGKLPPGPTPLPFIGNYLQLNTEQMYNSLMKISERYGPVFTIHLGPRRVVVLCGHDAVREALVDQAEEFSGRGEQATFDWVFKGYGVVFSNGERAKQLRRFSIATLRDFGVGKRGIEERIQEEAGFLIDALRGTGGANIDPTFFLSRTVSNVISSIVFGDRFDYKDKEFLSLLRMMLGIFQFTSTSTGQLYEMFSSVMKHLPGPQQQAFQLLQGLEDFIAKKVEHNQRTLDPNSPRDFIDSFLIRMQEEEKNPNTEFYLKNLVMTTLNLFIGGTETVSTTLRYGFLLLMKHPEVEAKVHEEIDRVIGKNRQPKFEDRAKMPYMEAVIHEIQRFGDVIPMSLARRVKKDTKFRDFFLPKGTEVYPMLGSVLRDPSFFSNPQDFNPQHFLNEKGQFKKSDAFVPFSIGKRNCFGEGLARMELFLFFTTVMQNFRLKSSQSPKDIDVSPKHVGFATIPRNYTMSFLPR

Sequence of Melanocortin receptor 3 (P41968 whole entry): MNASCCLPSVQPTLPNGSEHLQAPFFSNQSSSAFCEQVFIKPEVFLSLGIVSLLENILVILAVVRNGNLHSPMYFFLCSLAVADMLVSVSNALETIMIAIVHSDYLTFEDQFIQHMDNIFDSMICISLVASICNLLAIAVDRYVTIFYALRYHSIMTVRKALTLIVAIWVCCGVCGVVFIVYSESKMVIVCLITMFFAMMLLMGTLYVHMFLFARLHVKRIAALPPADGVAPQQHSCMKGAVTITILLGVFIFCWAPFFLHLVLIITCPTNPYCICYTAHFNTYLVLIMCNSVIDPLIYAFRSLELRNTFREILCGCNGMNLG

Row | SMILES | IC50 [1] | Ki [1] | IC50 ([2]; cho) | IC50 ([3]; platelet) | IC50 [4] | IC50 [5] | IC50 [6] | Ki [6] | IC50 ([7]; platelet) | IC50 [8] | IC50 [9] | Ki [9] | IC50 [10] | Ki [10] | IC50 ([2]; read-out: IC50) | Ki ([2]; read-out: Ki) | IC50 ([3]; read-out: IC50) | IC50 ([7]; read-out: IC50)
1 | COc1ccc2cc(CC(=O)O)ccc2c1 | Not Active | Not Active | Not Active | Not Active | Not Active | Not Active | Not Active | Not Active | Not Active | Not Active | Not Active | Not Active | Not Active | Not Active | – | – | – | –
2 | CC(C)NC[C@H](O)COc1cccc2[nH]ccc12 | Not Active | Not Active | Not Active | Not Active | Not Active | Not Active | Not Active | Not Active | Not Active | Not Active | – | – | – | – | – | – | – | –
3 | c1ccc2c(c1)cc1ccc3cccc4ccc2c1c34 | Not Active | Not Active | Not Active | Not Active | Not Active | Not Active | Not Active | Not Active | Not Active | Not Active | – | – | Not Active | Not Active | – | – | – | –
4 | CC(/C=C1\SC(=S)N(CC(=O)O)C1=O)=C\c1ccccc1 | Not Active | Not Active | Not Active | Not Active | Not Active | Not Active | Not Active | Not Active | Not Active | Not Active | Not Active | Not Active | Not Active | Not Active | – | – | – | –
5 | Cc1[nH]cnc1CN1CCc2c(c3ccccc3n2C)C1=O [ALOSETRON] | Not Active | Not Active | Not Active | Not Active | Not Active | Not Active | Not Active | Not Active | Not Active | Not Active | – | – | Not Active | Not Active | – | – | – | –
6 | O=c1cc(-c2ccccc2)oc2c1ccc1ccccc12 [ALPHA-NAPHTHOFLAVONE] | Not Active | Not Active | – | – | Not Active | Not Active | Not Active | Not Active | – | Not Active | – | – | Not Active | Not Active | 5.85 µM | 1.95 µM | 6.76 µM | 2.3 µM
7 | CC1(C)S[C@@H]2[C@H](NC(=O)[C@H](N)c3ccc(O)cc3)C(=O)N2[C@H]1C(=O)O [AMOXICILLIN] | Not Active | Not Active | Not Active | Not Active | Not Active | Not Active | Not Active | Not Active | Not Active | Not Active | – | – | Not Active | Not Active | – | – | – | –
8 | CCCCOC(=O)c1ccc(N)cc1 [BUTAMBEN] | Not Active | Not Active | Not Active | Not Active | Not Active | Not Active | Not Active | Not Active | Not Active | Not Active | – | – | Not Active | Not Active | – | – | – | –
9 | O=C(O)c1cn(C2CC2)c2cc(N3CCNCC3)c(F)cc2c1=O [CIPROFLOXACIN] | Not Active | Not Active | Not Active | Not Active | Not Active | Not Active | Not Active | Not Active | Not Active | Not Active | – | – | Not Active | Not Active | – | – | – | –
10 | O=C1OCCN1/N=C/c1ccc([N+](=O)[O-])o1 [FURAZOLIDONE] | Not Active | Not Active | Not Active | Not Active | Not Active | Not Active | Not Active | Not Active | Not Active | Not Active | – | – | – | – | – | – | – | –
11 | NCC(=O)O [GLYCINE] | Not Active | Not Active | Not Active | Not Active | Not Active | Not Active | Not Active | Not Active | Not Active | Not Active | – | – | – | – | – | – | – | –
12 | NS(=O)(=O)c1cc2c(cc1Cl)NCNS2(=O)=O [HYDROCHLOROTHIAZIDE] | Not Active | Not Active | Not Active | Not Active | Not Active | Not Active | Not Active | Not Active | Not Active | Not Active | – | – | Not Active | Not Active | – | – | – | –
13 | O=P1(NCCCl)OCCCN1CCCl (stereo not drawn) [IFOSFAMIDE] | Not Active | Not Active | Not Active | Not Active | Not Active | Not Active | Not Active | Not Active | Not Active | Not Active | – | – | – | – | – | – | – | –
